In patent publication US11253499B2, “Compounds” (priority 2017, dated 2022):

System: M. tuberculosis W4-E1-GFP (Mutant)
Assay type: cell-based, Mycobacterium tuberculosis
Conditions: read-out: EC50_Mutant

SMILES | EC50
O=C(CCC(F)(F)F)N1CC(N2CCCCC2)C1 [Example 39, 4,4,4-trifluoro-1-(3-(piperidin-1-yl)azetidin-1-yl)butan-1-one] | 1000 to 10000 nM
O=C(CCC(F)(F)F)N1CC(c2ccc(Cl)nc2)C1 [Example 19] | 1000 to 10000 nM
O=C(CCC(F)(F)F)N1CC(c2cncc(C(F)(F)F)c2)C1 [Example 24, 4,4,4-trifluoro-1-[3-[5-(trifluoromethyl)-3-pyridyl]azetidin-1-yl]butan-1-one] | 1000 to 10000 nM
COc1ccc(C2CN(C(=O)CCC(F)(F)F)C2)cn1 [Example 22, 4,4,4-trifluoro-1-[3-(6-methoxy-3-pyridyl)azetidin-1-yl]butan-1-one] | 50 to 250 nM
CC(C)Oc1ccc(C2CN(C(=O)CCC(F)(F)F)C2)cn1 [Example 36, 4,4,4-trifluoro-1-[3-(6-isopropoxy-3-pyridyl)azetidin-1-yl]butan-1-one] | 1000 to 10000 nM
Cc1cc(F)ccc1C1CN(C(=O)CCC(F)(F)F)C1 [Example 28, 4,4,4-trifluoro-1-[3-(4-fluoro-2-methyl-phenyl)azetidin-1-yl]butan-1-one] | 250 to 500 nM
O=C(CCC(F)(F)F)N1CC(C2CCCC2)C1 [Example 5, 1-(3-cyclopentylazetidin-1-yl)-4,4,4-trifluoro-butan-1-one] | 50 to 250 nM
O=C(CCC(F)(F)F)N1CC(c2cccnc2)C1 [Example 26, 4,4,4-trifluoro-1-[3-(3-pyridyl)azetidin-1-yl]butan-1-one] | 1000 to 10000 nM
O=C(CCC(F)(F)F)N1CC(c2ccc(OCC(F)(F)F)nc2)C1 [Example 37, 4,4,4-trifluoro-1-[3-[6-(2,2,2-trifluoroethoxy)-3-pyridyl]azetidin-1-yl]butan-1-one] | 1000 to 10000 nM
O=C(CCC(F)(F)F)N1CC(c2ccncc2)C1 [Example 30, 4,4,4-trifluoro-1-[3-(4-pyridyl)azetidin-1-yl]butan-1-one] | 1000 to 10000 nM
O=C(CCC(F)(F)F)N1CC(c2cncc(Cl)c2)C1 [Example 23, 1-[3-(5-chloro-3-pyridyl)azetidin-1-yl]-4,4,4-trifluoro-butan-1-one] | 1000 to 10000 nM
O=C(CCC(F)(F)F)N1CC(c2ccc(F)c(F)c2)C1 [Example 27, 1-[3-(3,4-difluorophenyl)azetidin-1-yl]-4,4,4-trifluoro-butan-1-one] | < 50 nM
O=C(CCC(F)(F)F)N1CC(c2ccc(C(F)(F)F)cn2)C1 [Example 8, 4,4,4-trifluoro-1-[3-[5-(trifluoromethyl)-2-pyridyl]azetidin-1-yl]butan-1-one] | 500 to 1000 nM
O=C(CCC(F)(F)F)N1CC(c2ccc(F)cc2)C1 [Example 1, 4,4,4-trifluoro-1-[3-(4-fluorophenyl)azetidin-1-yl]butan-1-one] | < 50 nM
CC1(c2ccc(F)cc2)CN(C(=O)CCC(F)(F)F)C1 [Example 42, 4,4,4-trifluoro-1-(3-(4-fluorophenyl)-3-methylazetidin-1-yl)butan-1-one] | 50 to 250 nM
O=C(CCC(F)(F)F)N1CC(c2cccc(C(F)(F)F)c2)C1 [Example 2, 4,4,4-trifluoro-1-[3-[3-(trifluoromethyl)phenyl]azetidin-1-yl]butan-1-one] | 50 to 250 nM
O=C(CCC(F)(F)F)N1CC(c2cccc(OC(F)(F)F)c2)C1 [Example 15, 4,4,4-trifluoro-1-[3-[3-(trifluoromethoxy)phenyl]azetidin-1-yl]butan-1-one] | 50 to 250 nM
O=C(CCC(F)(F)F)N1CC(C2CC2)C1 [Example 4, 1-(3-cyclopropylazetidin-1-yl)-4,4,4-trifluoro-butan-1-one] | 500 to 1000 nM
O=C(CCC(F)(F)F)N1CC(C2CCCCC2)C1 [Example 6, 1-(3-cyclohexylazetidin-1-yl)-4,4,4-trifluoro-butan-1-one] | < 50 nM
O=C(CCC(F)(F)F)N1CC(c2cc(C(F)(F)F)ccn2)C1 [Example 7, 4,4,4-trifluoro-1-[3-[4-(trifluoromethyl)-2-pyridyl]azetidin-1-yl]butan-1-one] | 250 to 500 nM
O=C(CCC(F)(F)F)N1CC(c2cc(Cl)ccn2)C1 [Example 11, 1-[3-(4-chloro-2-pyridyl)azetidin-1-yl]-4,4,4-trifluoro-butan-1-one] | 50 to 250 nM
O=C(CCC(F)(F)F)N1CC(c2ccc(Cl)cc2)C1 [Example 13, 1-[3-(4-chlorophenyl)azetidin-1-yl]-4,4,4-trifluoro-butan-1-one] | 50 to 250 nM

SMILES | EC50
O=C(CCC(F)(F)F)N1CC(C2CCC(F)(F)CC2)C1 [Example 40, 1-(3-(4,4-difluorocyclohexyl)azetidin-1-yl)-4,4,4-trifluorobutan-1-one] | 50 to 250 nM
O=C(CCC(F)(F)F)N1CC(c2cccc(F)c2)C1 [Example 29, 4,4,4-trifluoro-1-[3-(3-fluorophenyl)azetidin-1-yl]butan-1-one] | 50 to 250 nM
O=C(CCC(F)(F)F)N1CC(N2CCC(F)(F)CC2)C1 [Example 35, 1-[3-(4,4-difluoro-1-piperidyl)azetidin-1-yl]-4,4,4-trifluoro-butan-1-one] | 500 to 1000 nM
O=C(CCC(F)(F)F)N1CC(c2ccc(C(F)(F)F)nc2)C1 [Example 21, 4,4,4-trifluoro-1-[3-[6-(trifluoromethyl)-3-pyridyl]azetidin-1-yl]butan-1-one] | 1000 to 10000 nM
O=C(CCC(F)(F)F)N1CC(c2ccc(F)cn2)C1 [Example 9, 4,4,4-trifluoro-1-[3-(5-fluoro-2-pyridyl)azetidin-1-yl]butan-1-one] | 500 to 1000 nM
COC1(c2ccc(F)cc2)CN(C(=O)CCC(F)(F)F)C1 [Example 41, 4,4,4-trifluoro-1-(3-(4-fluorophenyl)-3-methoxyazetidin-1-yl)butan-1-one] | 50 to 250 nM
O=C(CCCC(F)(F)F)N1CC(c2ccc(F)cc2)C1 [Example 3, 5,5,5-trifluoro-1-[3-(4-fluorophenyl)azetidin-1-yl]pentan-1-one] | 50 to 250 nM
O=C(CCC(F)(F)F)N1CC(c2ncc(F)cc2F)C1 [Example 10, 1-[3-(3,5-difluoro-2-pyridyl)azetidin-1-yl]-4,4,4-trifluoro-butan-1-one] | 250 to 500 nM
O=C(CCC(F)(F)F)N1CC(c2ccnc(Cl)c2)C1 [Example 32, 1-[3-(2-chloro-4-pyridyl)azetidin-1-yl]-4,4,4-trifluoro-butan-1-one] | 1000 to 10000 nM
O=C(CCC(F)(F)F)N1CC(F)(c2ccc(F)cc2)C1 [Example 44, 4,4,4-trifluoro-1-(3-fluoro-3-(4-fluorophenyl)azetidin-1-yl)butan-1-one] | < 50 nM
O=C(CCC(F)(F)F)N1CC(c2ccnc(C(F)(F)F)c2)C1 [Example 12, 4,4,4-trifluoro-1-[3-[2-(trifluoromethyl)-4-pyridyl]azetidin-1-yl]butan-1-one] | 1000 to 10000 nM
O=C(CCC(F)(F)F)N1CC(c2ccc(F)cc2Cl)C1 [Example 20, 1-[3-(2-chloro-4-fluoro-phenyl)azetidin-1-yl]-4,4,4-trifluoro-butan-1-one] | 50 to 250 nM
O=C(CCC(F)(F)F)N1CC(c2ccc(F)cc2F)C1 [Example 18, 1-[3-(2,4-difluorophenyl)azetidin-1-yl]-4,4,4-trifluoro-butan-1-one] | < 50 nM
O=C(CCC(F)(F)F)N1CC(c2ccc(OC(F)(F)F)cc2)C1 [Example 14, 4,4,4-trifluoro-1-[3-[4-(trifluoromethoxy)phenyl]azetidin-1-yl]butan-1-one] | 1000 to 10000 nM
O=C(CCC(F)(F)F)N1CC(c2ccc(F)nc2)C1 [Example 33, 4,4,4-trifluoro-1-[3-(6-fluoro-3-pyridyl)azetidin-1-yl]butan-1-one] | 1000 to 10000 nM
O=C(CCC(F)(F)F)N1CC(c2cccc(Cl)c2)C1 [Example 17, 1-[3-(3-chlorophenyl)azetidin-1-yl]-4,4,4-trifluoro-butan-1-one] | < 50 nM
O=C(CCC(F)(F)F)N1CC(C2CCOCC2)C1 [Example 38, 4,4,4-trifluoro-1-(3-(tetrahydro-2H-pyran-4-yl)azetidin-1-yl)butan-1-one] | 1000 to 10000 nM
O=C(CCC(F)(F)F)N1CC(c2ccnc(F)c2)C1 [Example 31, 4,4,4-trifluoro-1-[3-(2-fluoro-4-pyridyl)azetidin-1-yl]butan-1-one] | 1000 to 10000 nM
O=C(CCC(F)(F)F)N1CC(c2ccc(C(F)(F)F)cc2)C1 [Example 16] | 250 to 500 nM
O=C(CCC(F)(F)F)N1CC(c2cc(F)c(F)c(F)c2)C1 [Example 34, 4,4,4-trifluoro-1-[3-(3,4,5-trifluorophenyl)azetidin-1-yl]butan-1-one] | 50 to 250 nM
N#Cc1ccc(C2CN(C(=O)CCC(F)(F)F)C2)cc1 [Example 43, 4-(1-(4,4,4-trifluorobutanoyl)azetidin-3-yl)benzonitrile] | 1000 to 10000 nM
O=C(CCC(F)(F)F)N1CC(c2ccc(F)cc2C(F)(F)F)C1 [Example 25, 4,4,4-trifluoro-1-[3-[4-fluoro-2-(trifluoromethyl)phenyl]azetidin-1-yl]butan-1-one] | 250 to 500 nM
